Measured values as given in patent US8173689B2 (Novartis AG, priority 2006, dated 2012).
Where two headings read alike, the source gives them in different places.

Key:
kinase domain of cKIT = target: T1, kinase domain of cKIT (Homo sapiens, UniProt P10721); assay: Inhibition of cKIT kinase signaling in an in vitro biochemical assay (alphascreen); settings: tested at about 1 μM, read-out: cKit percent inhibition
T1 construct: The kinase domain of cKIT was assayed in 50 mM Hepes; purchased Upstate 14-559
T1 sequence (P10721 589-937 limits assumed): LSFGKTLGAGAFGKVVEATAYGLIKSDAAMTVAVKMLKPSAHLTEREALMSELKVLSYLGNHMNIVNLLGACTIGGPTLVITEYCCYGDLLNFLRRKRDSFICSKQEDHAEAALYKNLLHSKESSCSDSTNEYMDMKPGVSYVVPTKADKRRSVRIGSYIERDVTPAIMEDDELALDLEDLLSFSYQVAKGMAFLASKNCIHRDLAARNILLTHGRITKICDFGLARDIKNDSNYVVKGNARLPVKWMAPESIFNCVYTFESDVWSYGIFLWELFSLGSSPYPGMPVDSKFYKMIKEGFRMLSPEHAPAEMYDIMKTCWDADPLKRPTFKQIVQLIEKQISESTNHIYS

kinase domain of PDGFRβ = target: T2, kinase domain of PDGFRβ (Homo sapiens, UniProt P09619); assay: Inhibition of PDGFRb kinase signaling in an in vitro biochemical assay (alphascreen); settings: tested at about 1 μM, read-out: PDGFRβ percent inhibition
T2 construct: The kinase domain of PDGFRβ was assayed in 50 mM Hepes; purchased Invitrogen P3082
T2 sequence (P09619 600-962 limits assumed): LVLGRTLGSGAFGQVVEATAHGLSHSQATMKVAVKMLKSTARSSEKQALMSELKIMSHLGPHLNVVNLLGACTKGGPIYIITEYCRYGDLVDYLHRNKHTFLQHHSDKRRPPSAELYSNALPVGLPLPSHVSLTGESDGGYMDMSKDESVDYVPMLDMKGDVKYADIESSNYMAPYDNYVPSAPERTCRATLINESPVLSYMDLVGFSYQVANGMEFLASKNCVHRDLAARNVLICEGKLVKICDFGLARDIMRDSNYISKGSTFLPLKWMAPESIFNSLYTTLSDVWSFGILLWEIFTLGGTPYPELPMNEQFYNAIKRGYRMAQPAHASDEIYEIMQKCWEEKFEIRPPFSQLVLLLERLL

[1] = target: T3, cytoplasmic domain of the human CSF-1R (Homo sapiens, UniProt P07333); assay: In vitro kinase assay for colony stimulating factor-1 receptor (AlphaScreen); format: biochemical; settings: tested at about 1 μM, read-out: CSF-1R percent inhibition
T3 construct: Recombinant protein corresponding to the cytoplasmic domain of the human CSF-1R; purchased Invitrogen Corporation, Carlsbad, Calif; PV3249
T3 sequence (P07333 539-972 limits assumed): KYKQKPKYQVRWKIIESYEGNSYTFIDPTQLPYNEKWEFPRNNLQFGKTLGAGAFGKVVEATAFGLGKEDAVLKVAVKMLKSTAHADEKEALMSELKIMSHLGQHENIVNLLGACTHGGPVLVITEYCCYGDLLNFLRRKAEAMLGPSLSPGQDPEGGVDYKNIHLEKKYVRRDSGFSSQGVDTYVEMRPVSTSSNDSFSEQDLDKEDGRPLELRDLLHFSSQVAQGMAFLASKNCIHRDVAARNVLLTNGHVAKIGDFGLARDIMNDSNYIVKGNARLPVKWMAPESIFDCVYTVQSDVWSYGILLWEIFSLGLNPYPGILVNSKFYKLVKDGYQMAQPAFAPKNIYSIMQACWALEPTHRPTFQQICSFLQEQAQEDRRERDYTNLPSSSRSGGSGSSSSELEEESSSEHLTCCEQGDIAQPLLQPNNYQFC
Summary of the method: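 Test compounds, serially diluted threefold starting at 25 μM, were mixed with Hepes buffer (pH 7.5, Mg2+/Mn2+, DTT, BSA, Tween 80) containing 1 μM ATP. Recombinant kinase was present at 4 nM. After stopping, beads were added and plates were read the next day by AlphaScreen.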

[2] = tested on: MNFS60 (murine AML cells); assay: Cell viability assay in MCSF dependent MNFS60 cells (Cell Titer Glo); format: cell-based; settings: Mus musculus, tested at about 1 μM, read-out: M-NFS-60 CP percent inhibition
Procedure: Cell viability was assessed by Cell Titer Glo, Promega. […] Test compounds were serially diluted (3 fold) in DMSO to 500× the final concentration. […] Final concentration of MCSF is 10 ng/ml. Cells were incubated for 72 hrs at 37° C., 5% CO2. After the incubation 100 μl Cell Titer Glo is added to each well to determine viable cells. The assay was performed according to the manufacturer's instruction (Promega Corporation, Madison, Wis. USA). Each experimental condition was performed in triplicate. Raw data was imported in Abase and EC50s calculated with XL-fit data analysis software.

Row | inhibition at 1 µM (kinase domain of cKIT) | inhibition at 1 µM (kinase domain of PDGFRβ) | inhibition at 1 µM [1] | inhibition at 1 µM (kinase domain of cKIT; compounds of Table 3) | inhibition at 1 µM (kinase domain of PDGFRβ; compounds of Table 3) | inhibition at 1 µM ([1]; compounds of Table 3) | SMILES | inhibition at 1 µM ([2]; MCSF dependent MNFS60 cells) | inhibition at 1 µM ([2]; compounds of Table 3) | inhibition at 1 µM ([2]; MNFS60 cells)
1 | 27% | 43% | 100% | – | – | – | CNC(=O)c1cc(Oc2ccc3nc(N[C@H]4[C@H]5CC[C@H](C5)[C@H]4CO)sc3c2)ccn1 [Example 325, 4-(2-((1S,3R,4R)-3-(hydroxymethyl)bicyclo[2.2.1]heptan-2-ylamino)benzo[d]thiazol-6-yloxy)-N-methylpicolinamide] | 66% | – | –
2 | 0% | 91% | 97% | – | – | – | CNC(=O)c1cc(Oc2ccc3nc(NCc4ccccc4N4CCCCC4)sc3c2)ccn1 [Compound 153, 4-[2-(2-Piperidin-1-yl-benzylamino)-benzothiazol-6-yloxy]-pyridine-2-carboxylic acid methylamide] | – | – | 63%
3 | 12% | 1% | 99% | – | – | – | COCCNC(=O)c1cc(Oc2ccc3nc(NCC4CCCCC4)sc3c2)ccn1 [Compound 159, 4-(2-(cyclohexylmethyl-amino)benzothiazol-6-yloxy)-N-(2-methox.ylethyl)-pyridine-2-carboxamide] | – | – | 17%
4 | 59% | 28% | 100% | – | – | – | COCCNc1cc(Oc2ccc3nc(NCC4CCCCC4)sc3c2)ccn1 [Example 343, N-(cyclohexylmethyl)-6-(2-(2-methoxyethylamino)pyridin-4-yloxy)benzo[d]thiazol-2-amine] | 57% | – | –
5 | – | – | – | 100% | 47% | 100% | Fc1ccc2c(Oc3ccc4nc(NCC5CCCCC5)sc4c3)ccnc2c1 [Example 227, N-(cyclohexylmethyl)-6-(7-fluoroquinolin-4-yloxy)benzo[d]thiazol-2-amine] | – | 65% | –
6 | 26% | 12% | 100% | – | – | – | CCNc1cc(Oc2ccc3nc(N[C@@H]4CCCC[C@H]4O)sc3c2)ccn1 [Example 369, (1R,2R)-2-(6-(2-(ethylamino)pyridin-4-yloxy)benzo[d]thiazol-2-ylamino)cyclohexanol] | 44% | – | –
7 | 51% | 52% | 100% | – | – | – | CNc1cc(Oc2ccc3nc(NCC4CCCCC4)sc3c2)ccn1 [Example 338, N-(cyclohexylmethyl)-6-(2-(methylamino)pyridin-4-yloxy)benzo[d]thiazol-2-amine] | 44% | – | –

Further lines, the compound ahead of its results:

Row | SMILES | inhibition at 1 µM (kinase domain of cKIT) | inhibition at 1 µM (kinase domain of PDGFRβ) | inhibition at 1 µM [1] | inhibition at 1 µM (kinase domain of cKIT; compounds of Table 3) | inhibition at 1 µM (kinase domain of PDGFRβ; compounds of Table 3) | inhibition at 1 µM ([1]; compounds of Table 3) | inhibition at 1 µM ([2]; MCSF dependent MNFS60 cells) | inhibition at 1 µM ([2]; compounds of Table 3) | inhibition at 1 µM ([2]; MNFS60 cells)
8 | O[C@@H]1CCCC[C@H]1Nc1nc2ccc(Oc3ccnc(-c4ccc(F)cc4)c3)cc2s1 [Example 288, (1R,2R)-2-(6-(2-(4-fluorophenyl)pyridin-4-yloxy)benzo[d]thiazol-2-ylamino)cyclohexanol] | – | – | – | 78% | 24% | 100% | – | 70% | –
9 | CNC(=O)c1cc(Oc2ccc3nc(NCCc4cccnc4)sc3c2)ccn1 [Example 315, N-methyl-4-(2-(2-(pyridin-3-yl)ethylamino)benzo[d]thiazol-6-yloxy)picolinamide] | 17% | 0% | 98% | – | – | – | 27% | – | –
10 | CNC(=O)c1cc(Oc2ccc3nc(N[C@@H]4CC=CC[C@@H]4C(N)=O)sc3c2)ccn1 [Example 217] | – | – | – | 16% | 23% | 99% | – | 0% | –
11 | CCc1nc(-c2cc(Oc3ccc4nc(N[C@@H](C)C5CCCCC5)sc4c3)ccn2)[nH]c1CC [Example 272, (S)-N-(1-cyclohexylethyl)-6-(2-(4,5-diethyl-1H-imidazol-2-yl)pyridin-4-yloxy)benzo[d]thiazol-2-amine] | – | – | – | 24% | 7% | 98% | – | 38% | –
12 | Cn1cc(-c2cc(Oc3ccc4nc(N[C@H](CO)Cc5ccccc5)sc4c3)ccn2)cn1 [Example 351, (S)-2-(6-(2-(1-methyl-1H-pyrazol-4-yl)pyridin-4-yloxy)benzo[d]thiazol-2-ylamino)-3-phenylpropan-1-ol] | 98% | 79% | 100% | – | – | – | 100% | – | –
13 | O[C@@H]1Cc2ccccc2[C@@H]1Nc1nc2ccc(Oc3ccnc4ccccc34)cc2s1 [Example 239, (1S,2R)-1-(6-(quinolin-4-yloxy)benzo[d]thiazol-2-ylamino)-2,3-dihydro-1H-inden-2-ol] | – | – | – | 100% | 25% | 100% | – | 90% | –
14 | CNC(=O)c1cc(Oc2ccc3nc(NCc4c(F)cccc4OC)oc3c2)ccn1 [Compound 116, 4-[2-(2-Fluoro-6-methoxy-benzylamino)-benzooxazol-6-yloxy]-pyridine-2-carboxylic acid methylamide] | 100% | 18% | 100% | – | – | – | – | – | 10%
15 | CNC(=O)c1cc(Oc2ccc3nc(NCc4cc(OC)ccc4OC)oc3c2)ccn1 [Compound 83, 4-[2-(2,5-Dimethoxy-benzyl-amino)-benzooxazol-6-yloxy]-pyridine-2-carboxylic acid methylamide] | 12% | 0% | 99% | – | – | – | – | – | 26%
16 | Cn1nccc1-c1cc(Oc2ccc3nc(N[C@@H]4CCCC[C@H]4O)sc3c2)ccn1 [Example 265, (1R,2R)-2-(6-(2-(1-methyl-1H-pyrazol-5-yl)pyridin-4-yloxy)benzo[d]thiazol-2-ylamino)cyclohexanol] | – | – | – | 9% | 12% | 100% | – | 32% | –
17 | CNC(=O)c1cc(Oc2ccc3nc(NCc4c(Cl)cccc4OC)oc3c2)ccn1 [Compound 121, 4-[2-(2-Chloro-6-methoxy-benzylamino)-benzooxazol-6-yloxy]-pyridine-2-carboxylic acid methylamide] | 9% | 30% | 100% | – | – | – | – | – | 17%
18 | O[C@@H]1CCCC[C@H]1Nc1nc2ccc(Oc3ccncc3-c3cccnc3)cc2s1 [Example 190] | – | – | – | 22% | 19% | 98% | – | 5% | –
19 | Nc1ncc(-c2cc(Oc3ccc4nc(N[C@@H]5CCCC[C@H]5O)sc4c3)ccn2)cc1C(F)(F)F [Example 282, (1R,2R)-2-(6-(6'-amino-5'-(trifluoromethyl)-2,3'-bipyridin-4-yloxy)benzo[d]thiazol-2-ylamino)cyclohexanol] | – | – | – | 23% | 7% | 99% | – | 22% | –
20 | COc1ccccc1CNc1nc2ccc(Oc3ccnc4ccccc34)cc2s1 [Example 257, N-(2-methoxybenzyl)-6-(quinolin-4-yloxy)benzo[d]thiazol-2-amine] | – | – | – | 100% | 11% | 100% | – | 100% | –
21 | CNC(=O)c1cc(Oc2ccc3nc(NC4CCC4)oc3c2)ccn1 [Compound 22, 4-(2-Cyclobutylamino-benzooxazol-6-yloxy)-pyridine-2-carboxylic acid methylamide] | – | 0% | 21% | 6% | 21% | 100% | – | 36% | –
